From ChEMBL document CHEMBL1201862, “PubChem BioAssay data set” (2004)
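All cell lines were grown in 96-well plates and treated with compound for 48 hours. GI50: concentration for 50% inhibition of growth.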 Active and inactive are the calls of the source. Rule as the data show it: active = GI50 up to about 1.1 µM and inactive = higher.

Experiments:
Test in all cases: NCI-60 cell line screen, 48 h
NCI-H522 = test system: NCI-H522
DU-145 = test system: DU-145
SW-620 = test system: SW-620
HOP-62 = test system: HOP-62
CCRF-CEM = test system: CCRF-CEM
SR = test system: SR
SF-295 = test system: SF-295
SN12C = test system: SN12C
LOX IMVI = test system: LOX IMVI
SK-MEL-28 = test system: SK-MEL-28
HCT-15 = test system: HCT-15
OVCAR-3 = test system: OVCAR-3
EKVX = test system: EKVX
TK-10 = test system: TK-10
CAKI-1 = test system: CAKI-1
UACC-62 = test system: UACC-62
HOP-92 = test system: HOP-92
COLO 205 = test system: COLO 205
MCF7 = test system: MCF7
T47D = test system: T47D

Compound | GI50 (NCI-H522) | GI50 (DU-145) | GI50 (SW-620) | GI50 (HOP-62) | GI50 (CCRF-CEM) | GI50 (SR) | GI50 (SF-295) | GI50 (SN12C) | GI50 (LOX IMVI) | GI50 (SK-MEL-28) | GI50 (HCT-15) [µM] | GI50 (OVCAR-3) | GI50 (EKVX) | GI50 (TK-10) | GI50 (CAKI-1) | GI50 (UACC-62) | GI50 (HOP-92) | GI50 (COLO 205) | GI50 (MCF7) | GI50 (T47D)
Cc1ccc(CCCC(=O)O)cc1C | > 100 µM (inactive) | > 100 µM (inactive) | > 100 µM (inactive) | > 100 µM (inactive) | > 100 µM (inactive) | > 100 µM (inactive) | > 100 µM (inactive) | > 100 µM (inactive) | > 100 µM (inactive) | > 100 µM (inactive) | > 100 | > 100 µM (inactive) | > 100 µM (inactive) | > 100 µM (inactive) | > 100 µM (inactive) | > 100 µM (inactive) | > 100 µM (inactive) | – | – | –
O=C1CSc2ccnc(=O)n21 | > 100 µM (inactive) | > 100 µM (inactive) | > 100 µM (inactive) | > 100 µM (inactive) | > 100 µM (inactive) | > 100 µM (inactive) | – | > 100 µM (inactive) | – | > 100 µM (inactive) | – | – | > 100 µM (inactive) | > 100 µM (inactive) | > 100 µM (inactive) | > 100 µM (inactive) | > 100 µM (inactive) | > 100 µM (inactive) | > 100 µM (inactive) | –
CC(/C=N\NC(=S)N1CCCCC1)=N/NC(=S)N1CCCCC1 | 1.54 µM (inactive) | 0.547 µM (active) | 0.935 µM (active) | 0.991 µM (active) | – | – | 0.627 µM (active) | 1.35 µM (inactive) | 0.82 µM (active) | 4.49 µM (inactive) | 0.42 | 1.53 µM (inactive) | 1.88 µM (inactive) | 2.06 µM (inactive) | 1.33 µM (inactive) | 0.671 µM (active) | 2.38 µM (inactive) | 1.75 µM (inactive) | 1.48 µM (inactive) | –
O=C(C(=C(I)I)c1ccccc1)c1ccccc1 | – | – | 28.8 µM (inactive) | 19.2 µM (inactive) | 1.08 µM (active) | 14.2 µM (inactive) | 21.7 µM (inactive) | 24 µM (inactive) | – | 30.7 µM (inactive) | 29.9 | 20.9 µM (inactive) | 28.8 µM (inactive) | 28.4 µM (inactive) | 38.4 µM (inactive) | 18.2 µM (inactive) | 33 µM (inactive) | 27.5 µM (inactive) | 49.8 µM (inactive) | –
O=C(O)CCCc1ccc2c(c1)CC1(C2)Cc2ccc(CCCC(=O)O)cc2C1 | > 100 µM (inactive) | – | – | > 100 µM (inactive) | > 100 µM (inactive) | > 100 µM (inactive) | > 100 µM (inactive) | > 100 µM (inactive) | > 100 µM (inactive) | – | > 100 | > 100 µM (inactive) | > 100 µM (inactive) | > 100 µM (inactive) | – | > 100 µM (inactive) | > 100 µM (inactive) | > 100 µM (inactive) | > 100 µM (inactive) | > 100 µM (inactive)
S=C(NN=C1NCCCN1)Nc1ccccc1 | 60.4 µM (inactive) | – | > 100 µM (inactive) | > 100 µM (inactive) | 43.3 µM (inactive) | 63.1 µM (inactive) | > 100 µM (inactive) | – | > 100 µM (inactive) | > 100 µM (inactive) | > 100 | > 100 µM (inactive) | > 100 µM (inactive) | > 100 µM (inactive) | > 100 µM (inactive) | > 100 µM (inactive) | > 100 µM (inactive) | > 100 µM (inactive) | > 100 µM (inactive) | > 100 µM (inactive)
COc1ccc2c(c1)CC[C@@H]1[C@@H]2CC[C@]2(C)C(=O)/C(=C/c3ccc(OC)c(OC)c3)C[C@@H]12 | – | > 100 µM (inactive) | > 100 µM (inactive) | > 100 µM (inactive) | – | 5.07 µM (inactive) | > 100 µM (inactive) | – | – | – | > 100 | > 100 µM (inactive) | > 100 µM (inactive) | > 100 µM (inactive) | > 100 µM (inactive) | > 100 µM (inactive) | 97.5 µM (inactive) | – | > 100 µM (inactive) | –
CCCCNc1nc(N)nc(Nc2ccc(Br)cc2)c1N=O | 36.4 µM (inactive) | 96.8 µM (inactive) | > 100 µM (inactive) | 37.2 µM (inactive) | 42.1 µM (inactive) | 6.43 µM (inactive) | – | 58.7 µM (inactive) | 31.6 µM (inactive) | > 100 µM (inactive) | 78 | 56.5 µM (inactive) | > 100 µM (inactive) | > 100 µM (inactive) | – | 62.7 µM (inactive) | – | 47 µM (inactive) | 74.6 µM (inactive) | –
COc1cc(Nc2nc3ccccc3nc2C(=O)O)cc(OC)c1OC | 46 µM (inactive) | > 100 µM (inactive) | > 100 µM (inactive) | 22.8 µM (inactive) | 83.2 µM (inactive) | > 100 µM (inactive) | 23.9 µM (inactive) | 74.1 µM (inactive) | 53 µM (inactive) | 30.1 µM (inactive) | 32.4 | 45.8 µM (inactive) | 30.1 µM (inactive) | 16.3 µM (inactive) | 16.4 µM (inactive) | – | 25.9 µM (inactive) | > 100 µM (inactive) | – | 24.3 µM (inactive)
Cn1/c(=N\c2ccc(Cl)cc2)sc2ccccc21 | 4.98 µM (inactive) | 26.6 µM (inactive) | 39.8 µM (inactive) | 71.3 µM (inactive) | > 100 µM (inactive) | > 100 µM (inactive) | 33.4 µM (inactive) | 75.3 µM (inactive) | 34.7 µM (inactive) | > 100 µM (inactive) | 8.15 | – | 21.1 µM (inactive) | 43 µM (inactive) | 34 µM (inactive) | 40.6 µM (inactive) | 23.3 µM (inactive) | 22.3 µM (inactive) | – | 15 µM (inactive)
C/C(=N/NC(=S)Nc1cccc(Cl)c1)c1ccccn1 | 0.06 µM (active) | 0.532 µM (active) | 0.0324 µM (active) | 0.453 µM (active) | < 0.0174 µM (active) | < 0.0185 µM (active) | 0.366 µM (active) | 0.255 µM (active) | 0.125 µM (active) | 2.21 µM (inactive) | 0.0588 | 0.0365 µM (active) | 0.0977 µM (active) | 0.322 µM (active) | 0.348 µM (active) | 0.202 µM (active) | 1.18 µM (inactive) | 0.0372 µM (active) | 0.0151 µM (active) | –
Cc1cccc(Nc2cn(CCOc3ccccc3)c(=O)n(CCOc3ccccc3)c2=O)c1 | – | > 100 µM (inactive) | > 100 µM (inactive) | > 100 µM (inactive) | > 100 µM (inactive) | > 100 µM (inactive) | > 100 µM (inactive) | > 100 µM (inactive) | > 100 µM (inactive) | > 100 µM (inactive) | > 100 | > 100 µM (inactive) | 2.54 µM (inactive) | – | > 100 µM (inactive) | > 100 µM (inactive) | 56.2 µM (inactive) | > 100 µM (inactive) | > 100 µM (inactive) | –
CC(C)=CCC/C(C)=C/COC(C)(C)C1=CCC(C)CC1.CC(C)=CCC/C(C)=C/COC1CC(C)CCC1=C(C)C (centres undefined) | > 100 µM (inactive) | > 100 µM (inactive) | > 100 µM (inactive) | > 100 µM (inactive) | – | 18.9 µM (inactive) | > 100 µM (inactive) | > 100 µM (inactive) | – | > 100 µM (inactive) | > 100 | > 100 µM (inactive) | > 100 µM (inactive) | > 100 µM (inactive) | > 100 µM (inactive) | > 100 µM (inactive) | > 100 µM (inactive) | > 100 µM (inactive) | 65.3 µM (inactive) | –
CCCCCCCCCCC(=O)CCCCCCC(=O)O | 21.4 µM (inactive) | – | 22.4 µM (inactive) | 25.4 µM (inactive) | 19.5 µM (inactive) | 18.2 µM (inactive) | 21.5 µM (inactive) | 27.3 µM (inactive) | 15.7 µM (inactive) | 40 µM (inactive) | 13.5 | 18.2 µM (inactive) | 31.8 µM (inactive) | 32.1 µM (inactive) | 30.5 µM (inactive) | 17.9 µM (inactive) | 16.9 µM (inactive) | 15.4 µM (inactive) | – | –
CN(C)CC1CCCC/C1=N\OC(=O)c1ccccc1 (centres undefined) | > 100 µM (inactive) | – | > 100 µM (inactive) | > 100 µM (inactive) | > 100 µM (inactive) | > 100 µM (inactive) | > 100 µM (inactive) | > 100 µM (inactive) | > 100 µM (inactive) | > 100 µM (inactive) | > 100 | > 100 µM (inactive) | > 100 µM (inactive) | > 100 µM (inactive) | > 100 µM (inactive) | > 100 µM (inactive) | > 100 µM (inactive) | > 100 µM (inactive) | – | –
COc1nc2c(c(=O)[nH]1)N=C(c1ccccc1)CC(c1ccccc1)N2 (centres undefined) | 35.1 µM (inactive) | 82 µM (inactive) | 35.7 µM (inactive) | 95.1 µM (inactive) | 36.4 µM (inactive) | > 10 µM (inactive) | 49.1 µM (inactive) | 37 µM (inactive) | 44.8 µM (inactive) | 72.9 µM (inactive) | – | > 100 µM (inactive) | 48.9 µM (inactive) | – | 91 µM (inactive) | 44.7 µM (inactive) | 80.9 µM (inactive) | > 100 µM (inactive) | 42.2 µM (inactive) | –
Oc1ccccc1C1=NOC(c2ccc(C(F)(F)F)cc2)C1 (centres undefined) | > 50 µM (inactive) | > 50 µM (inactive) | > 50 µM (inactive) | > 50 µM (inactive) | > 50 µM (inactive) | – | > 50 µM (inactive) | > 50 µM (inactive) | > 50 µM (inactive) | > 50 µM (inactive) | – | > 50 µM (inactive) | > 50 µM (inactive) | – | > 50 µM (inactive) | > 50 µM (inactive) | – | > 50 µM (inactive) | 0.665 µM (active) | 0.92 µM (active)
